This assay deals with T1, recombinant human PKM2 (Homo sapiens, UniProt P14618).
T1 construct: His (N); purchased R&D Systems
Nature of the assay: Human PKM2 activation assay (Kinase-Glo Plus luminescent detection of generated ATP). The format is biochemical. Conditions: for Emax: percentage activation normalised to DMSO vehicle (LOW) and 5 μM TEPP-46 (HIGH), read-out: hPKM2 Emax; for pEC50: recombinant human PKM2 activation, 4-parameter logistic fit, read-out: hPKM2 EC50. As to the method:
Compound activation of recombinant human PKM2 pyruvate kinase activity was determined by biochemical assay. N-terminal His-tagged hPKM2 was sourced from R&D Systems and its substrates phosphoenolpyruvate (PEP) and ADP from Sigma-Aldrich and 2Bscientific Ltd, respectively. The Kinase-Glo® Plus luminescence assay was from Promega. All other reagents were from Sigma-Aldrich. Test Compounds were prepared as 10 mM DMSO stocks and dilution series prepared in DMSO for direct dilution into Assay Buffer comprising 50 mM imidazole, 50 mM KCl, 7 mM MgCl2, 0.01% Tween20, 0.05% BSA (pH 7.2).
Human PKM2 was diluted into Assay Buffer comprising 50 mM imidazole, 50 mM KCl, 7 mM MgCl2, 0.01% Tween20, 0.05% BSA (pH 7.2) to a final concentration of […]. Enzyme-Assay Buffer mix was dispensed into a 384-well shallow-well white-walled plate (PerkinElmer) and Test Compounds added by acoustic dispense (Echo®, Labcyte Inc.).
After 60 minutes' incubation on an orbital shaker (300 rpm, 26° C.), enzyme activity was quantified by the luminescent detection of generated ATP. Kinase-Glo® Plus reagent was added to each well and the plates incubated for a further 15 minutes on an orbital shaker in the dark (300 rpm, 26° C.) before luminescence measurement on a plate reader (PHERAstar® FSX, BMG Labtech).
Percentage activation was calculated by normalising […] signals to plate LOW (DMSO vehicle) and HIGH (5 μM TEPP-46) controls. EC50 and Emax values were determined from 4-parameter logistic fits of compound concentration-response curves.
In general terms: Kinase-Glo measures the ATP left after a reaction by luminescence.

33 compounds from US20260152487A1 (Sitryx Therapeutics Limited, priority 2021, published 2026) can be followed below.

pEC50: −log10 of the molar value.

T1 sequence (P14618 2-531 limits assumed): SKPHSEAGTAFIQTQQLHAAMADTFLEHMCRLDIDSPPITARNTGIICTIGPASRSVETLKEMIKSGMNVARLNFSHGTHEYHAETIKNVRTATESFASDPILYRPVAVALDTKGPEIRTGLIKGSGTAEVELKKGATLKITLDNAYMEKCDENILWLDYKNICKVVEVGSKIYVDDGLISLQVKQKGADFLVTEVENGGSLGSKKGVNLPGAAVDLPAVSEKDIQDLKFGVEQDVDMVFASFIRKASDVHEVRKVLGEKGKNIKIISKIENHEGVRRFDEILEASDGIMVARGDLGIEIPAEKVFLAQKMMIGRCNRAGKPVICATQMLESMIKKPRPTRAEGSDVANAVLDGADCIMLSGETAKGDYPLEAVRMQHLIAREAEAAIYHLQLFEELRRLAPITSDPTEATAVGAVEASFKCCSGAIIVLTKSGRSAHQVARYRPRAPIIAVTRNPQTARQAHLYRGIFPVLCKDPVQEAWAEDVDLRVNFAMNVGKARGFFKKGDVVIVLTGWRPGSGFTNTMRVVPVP

A word on the Emax: it is the greatest response seen or fitted, relative to the assay's reference. A word on the pEC50: it is the EC50 on a negative log10 scale, so that one unit is a factor of ten. With `Cn1ccc(Cn2ncc3cc([S+]([O-])c4ccccc4)ncc3c2=O)n1` (stereo not drawn) [Example 249, 3-((1-methyl-1H-pyrazol-3-yl)methyl)-7-(phenylsulfinyl)pyrido[3,4-d]pyridazin-4(3H)-one], the Emax amounted to 98.1% and the negative logarithm of the EC50 (pEC50) is 6.28.

Take `Cn1ccc(S(=O)(=O)c2ccc3c(=O)n(Cc4ccc5occc5n4)ncc3c2)n1` [Example 336]: the Emax is 106% and the pEC50 is 7.55.

As to `COc1ccc(Cn2ncc3cc(S(=O)(=O)c4cnc(C(F)F)s4)ccc3c2=O)cn1` [Example 173, 6-(2-(difluoromethyl)thiazol-5-ylsulfonyl)-2-((6-methoxypyridin-3-yl)methyl)phthalazin-1(2H)-one], the maximal effect (Emax) turned out to be 67.2% and the pEC50 is 6.82.

`Cc1cc(Cn2ncc3cc(S(=O)(=O)c4ccc5c(c4)CCO5)ccc3c2=O)n[nH]1` [Example 209, 6-((2,3-dihydrobenzofuran-5-yl)sulfonyl)-2-((5-methyl-1H-pyrazol-3-yl)methyl)phthalazin-1(2H)-one]: the Emax was determined as 118% and the pEC50 was 7.63.

For `O=c1c2ccc(S(=O)(=O)c3ccccc3)cc2cnn1Cc1ccn(C(F)F)n1` [Example 28, 2-((1-(difluoromethyl)-1H-pyrazol-3-yl)methyl)-6-(phenylsulfonyl)phthalazin-1(2H)-one], the Emax turned out to be 103% and the pEC50 was 6.79.

As to `COc1ccc(S(=O)(=O)c2ccc3c(=O)n(Cc4cc(C(F)(F)F)no4)ncc3c2)cc1` [Example 112, 6-(4-methoxyphenylsulfonyl)-2-((3-(trifluoromethyl)isoxazol-5-yl)methyl)phthalazin-1(2H)-one], the Emax was determined as 66.4% and the pEC50 was 7.67.

In the case of `COc1ccc(Cn2ncc3cc(S(=O)(=O)c4ccc(OC)nc4)ccc3c2=O)cn1` [Example 175, 2-((6-methoxypyridin-3-yl)methyl)-6-(6-methoxypyridin-3-ylsulfonyl)phthalazin-1(2H)-one], the maximal effect (Emax) stood at 97.2% and the pEC50 is 7.15.

Turning to `COc1ncccc1Cn1ncc2cc(S(=O)(=O)c3cn[nH]c3)ccc2c1=O` [Example 284, 6-((1H-pyrazol-4-yl)sulfonyl)-2-((2-methoxypyridin-3-yl)methyl)phthalazin-1(2H)-one], the Emax is 72.7% and the pEC50 was 6.34.

As for `CCn1nccc1Cn1ncc2cc(S(=O)(=O)c3ccccc3)ccc2c1=O` [Example 83, 2-((1-ethyl-1H-pyrazol-5-yl)methyl)-6-(phenylsulfonyl)phthalazin-1(2H)-one], the maximal effect (Emax) worked out at 78.1% and the negative-log EC50 (pEC50) was 6.33.

As to `Nc1cccc(Cn2ncc3cc(S(=O)(=O)c4ccc5c(c4)OCO5)ccc3c2=O)c1` [Example 152, 2-(3-aminobenzyl)-6-(benzo[d][1,3]dioxol-5-ylsulfonyl)phthalazin-1(2H)-one], the maximal response (Emax) was found to be 95.2% and the negative logarithm of the EC50 (pEC50) was 7.72.

For `Cn1ccc(Cn2ncc3cc(S(=N)(=O)c4ccccc4)ccc3c2=O)n1` (stereo not drawn) [Example 262, 2-((1-methyl-1H-pyrazol-3-yl)methyl)-6-(phenylsulfonimidoyl)phthalazin-1(2H)-one], the Emax was determined as 110% and the negative logarithm of the EC50 (pEC50) was 6.19.

On to `Cc1[nH]nc(Cn2ncc3cc(S(=O)(=O)c4cnn(C)c4)ccc3c2=O)c1C` [Example 348], for which the Emax stood at 94.3% and the pEC50 is 7.29.

In the case of `COC(C)c1nc(S(=O)(=O)c2ccc3c(=O)n(Cc4nc(C)c(C)cc4F)ncc3c2)cs1` (stereo not drawn) [Example 353], the maximum response (Emax) came to 105% and the negative-log EC50 (pEC50) is 7.01.

Turning to `COc1ccc(Cn2ncc3cc(S(=O)(=O)c4ccc(C)cn4)ccc3c2=O)cn1` [Example 115, 2-((6-methoxypyridin-3-yl)methyl)-6-(5-methylpyridin-2-ylsulfonyl)phthalazin-1(2H)-one], the Emax came out at 69.8% and the pEC50 is 6.56.

`O=c1c2ccc(S(=O)(=O)c3ccccn3)cc2cnn1Cc1cc[nH]n1` [Example 211, 2-((1H-pyrazol-3-yl)methyl)-6-(pyridin-2-ylsulfonyl)phthalazin-1(2H)-one]: the Emax stood at 80.7% and the negative-log EC50 (pEC50) was 6.65.

Regarding `Cn1cc(S(=O)(=O)c2ccc3c(=O)n(Cc4cc(F)[nH]n4)ncc3c2)cn1` [Example 322], the Emax was 104% and the pEC50 was 6.64.

On to `COc1ccc(S(=O)(=O)c2ccc3c(=O)n(Cc4ccncc4O)ncc3c2)cc1` [Example 105, 2-((3-hydroxypyridin-4-yl)methyl)-6-(4-methoxyphenylsulfonyl)phthalazin-1(2H)-one], for which the maximal effect (Emax) was found to be 103% and the pEC50 is 6.09.

Turning to `COCCn1ccc(S(=O)(=O)c2ccc3c(=O)n(Cc4ccc5c(n4)CCO5)ncc3c2)n1` [Example 360], the maximum response (Emax) came out at 113% and the pEC50 was 7.15.

On to `COc1ccc(S(=O)(=O)c2ccc3c(=O)n(Cc4cc[nH]n4)ncc3c2)cn1` [Example 235, 2-((1H-pyrazol-3-yl)methyl)-6-((6-methoxypyridin-3-yl)sulfonyl)phthalazin-1(2H)-one], for which the Emax worked out at 114% and the pEC50 was 7.25.

With `Cc1ccc(F)c(Cn2ncc3cc(S(=O)(=O)c4cc[nH]n4)ccc3c2=O)n1` [Example 301], the Emax is 119% and the pEC50 was 6.88.

As for `Cc1cccc(Cn2ncc3cc(S(=O)(=O)c4cnn(C5CNC5)c4)ccc3c2=O)n1` [Example 276, 6-((1-(azetidin-3-yl)-1H-pyrazol-4-yl)sulfonyl)-2-((6-methylpyridin-2-yl)methyl)phthalazin-1(2H)-one], the Emax was found to be 102% and the pEC50 is 6.29.

For `Cc1[nH]nc(Cn2ncc3cc(S(=O)(=O)c4ccn(C)n4)ccc3c2=O)c1Cl` [Example 337], the Emax was 95.9% and the pEC50 was 7.07.

On to `Cc1nc(S(=O)(=O)c2ccc3c(=O)n(Cc4ccn(C)n4)ncc3c2)cs1` [Example 214, 2-((1-methyl-1H-pyrazol-3-yl)methyl)-6-((2-methylthiazol-4-yl)sulfonyl)phthalazin-1(2H)-one], for which the Emax was found to be 102% and the negative-log EC50 (pEC50) was 6.59.

As to `O=c1c2ccc(S(=O)(=O)c3ccccc3)cc2cnn1Cc1cc2n(n1)CCO2` [Example 27, 2-((2,3-dihydropyrazolo[5,1-b]oxazol-6-yl)methyl)-6-(phenylsulfonyl)phthalazin-1(2H)-one], the Emax was found to be 122% and the pEC50 was 7.15.

Take `Nc1cccc(Cn2ncc3cc(S(=O)(=O)c4cccc5cccnc45)ccc3c2=O)c1` [Example 114, 2-(3-aminobenzyl)-6-(quinolin-8-ylsulfonyl)phthalazin-1(2H)-one]: the Emax stood at 97.1% and the pEC50 was 6.68.

Regarding `CCOc1ccc(S(=O)(=O)c2ccc3c(=O)n(Cc4ccn(C)n4)ncc3c2)cc1` [Example 216, 6-((4-ethoxyphenyl)sulfonyl)-2-((1-methyl-1H-pyrazol-3-yl)methyl)phthalazin-1(2H)-one], the maximal effect (Emax) came to 103% and the pEC50 is 7.13.

For `O=c1c2ccc(S(=O)(=O)c3ccccc3)cc2cnn1Cc1ccn(C2COC2)n1` [Example 273, 2-((1-(oxetan-3-yl)-1H-pyrazol-3-yl)methyl)-6-(phenylsulfonyl)phthalazin-1(2H)-one], the maximum response (Emax) is 112% and the pEC50 was 6.34.

Consider `COc1ccc(Cn2ncc3cc(S(=O)(=O)c4cccc(Cl)c4)ccc3c2=O)cn1` [Example 154, 6-((3-chlorophenyl)sulfonyl)-2-((6-methoxypyridin-3-yl)methyl)phthalazin-1(2H)-one], for which the Emax was determined as 93.7% and the pEC50 is 6.85.

Turning to `Cc1cccc(Cn2ncc3cc(S(=O)(=O)c4csc([C@@H](C)O)n4)ccc3c2=O)n1` (single isomer, unassigned) [Example 296], the Emax came to 92.2% and the negative-log EC50 (pEC50) was 6.95.

As to `O=c1c2cc(NCCO)c(S(=O)(=O)c3ccccc3)cc2cnn1Cc1cccnc1O` [Example 246, 7-((2-hydroxyethyl)amino)-2-((2-hydroxypyridin-3-yl)methyl)-6-(phenylsulfonyl)phthalazin-1(2H)-one], the Emax came to 96.7% and the negative logarithm of the EC50 (pEC50) was 6.58.

In the case of `Cc1ccc(Cn2ncc3cc(S(=O)(=O)c4cn[nH]c4)ccc3c2=O)cn1` [Example 295, 6-((1H-pyrazol-4-yl)sulfonyl)-2-((6-methylpyridin-3-yl)methyl)phthalazin-1(2H)-one], the maximum response (Emax) is 104% and the pEC50 is 6.34.

For `COc1ccc(Cn2ncc3cc([S@@](=N)(=O)c4ccccc4)ccc3c2=O)cn1` (single isomer, unassigned) [Example 133], the Emax is 77.3% and the negative-log EC50 (pEC50) is 6.35.

On to `O=c1c2ccc(S(=O)(=O)c3ccc4ccoc4c3)cc2cnn1Cc1cc[nH]n1` [Example 222, 2-((1H-pyrazol-3-yl)methyl)-6-(benzofuran-6-ylsulfonyl)phthalazin-1(2H)-one], for which the Emax amounted to 115% and the pEC50 was 6.86.
